According to US9688653B2, “Ethoxyphenyl thienyl compounds and methods for the treatment of bacterial infections” (Duke University, priority 2013, dated 2017):
Where two headings read alike, the source gives them in different places.

Assays:
in vitro = type: cell-based; details: human
E. coli K1 strain UTI89 = test: Secondary assay 2: T7 phage-mediated lysis assay; type: cell-based, Escherichia coli
Procedure, shortened: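 E. coli K1 UTI89 shaken 1.5 h with compound (100–0.39 μM, quadruplicate, 1% DMSO), initial OD600 taken to flag growth effects without phage. T7 phage, whose entry is blocked by K capsule, then added; OD600 lysis read after 3 h at 37 °C, greater lysis indicating less capsule.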

panel of 68 receptors [1] = target: panel of 68 receptors (Homo sapiens, UniProt Q9Y5N1); details: Histamine H3, hum, 10 μM
panel of 68 receptors (Homo sapiens, UniProt Q9Y5N1), sequence (Q9Y5N1 whole entry): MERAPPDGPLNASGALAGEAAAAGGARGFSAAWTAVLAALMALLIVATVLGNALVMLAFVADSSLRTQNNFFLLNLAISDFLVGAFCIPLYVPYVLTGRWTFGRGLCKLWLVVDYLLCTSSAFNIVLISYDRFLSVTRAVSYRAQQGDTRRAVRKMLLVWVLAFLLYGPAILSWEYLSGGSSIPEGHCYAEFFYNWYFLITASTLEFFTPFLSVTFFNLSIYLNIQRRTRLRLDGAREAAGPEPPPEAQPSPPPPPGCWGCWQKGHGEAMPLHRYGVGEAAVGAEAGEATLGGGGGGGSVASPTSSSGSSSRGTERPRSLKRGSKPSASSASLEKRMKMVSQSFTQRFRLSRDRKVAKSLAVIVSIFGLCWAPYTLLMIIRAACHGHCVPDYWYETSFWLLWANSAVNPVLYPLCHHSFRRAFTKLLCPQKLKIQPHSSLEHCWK

panel of 68 receptors [2] = target: panel of 68 receptors (Homo sapiens, UniProt P11229); details: Muscarinic M1, hum, 10 μM
panel of 68 receptors [3] = target: panel of 68 receptors (Homo sapiens, UniProt P30411); details: Bradykinin B2, hum, 10 μM
panel of 68 receptors (Homo sapiens, UniProt P30411), sequence (P30411 whole entry): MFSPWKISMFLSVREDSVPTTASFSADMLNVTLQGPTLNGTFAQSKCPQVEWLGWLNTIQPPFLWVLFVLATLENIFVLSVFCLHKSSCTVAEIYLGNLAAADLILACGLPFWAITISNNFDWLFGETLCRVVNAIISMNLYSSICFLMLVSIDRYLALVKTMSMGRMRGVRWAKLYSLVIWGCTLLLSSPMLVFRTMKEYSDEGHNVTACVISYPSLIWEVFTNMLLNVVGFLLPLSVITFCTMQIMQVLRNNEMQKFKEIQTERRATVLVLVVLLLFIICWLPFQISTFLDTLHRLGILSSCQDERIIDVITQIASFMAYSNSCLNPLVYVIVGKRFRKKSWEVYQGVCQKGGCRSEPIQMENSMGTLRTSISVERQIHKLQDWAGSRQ

panel of 68 receptors [4] = target: panel of 68 receptors (Homo sapiens, UniProt P35408); details: Prostanoid EP4, hum, 10 μM
panel of 68 receptors (Homo sapiens, UniProt P35408), sequence (P35408 whole entry): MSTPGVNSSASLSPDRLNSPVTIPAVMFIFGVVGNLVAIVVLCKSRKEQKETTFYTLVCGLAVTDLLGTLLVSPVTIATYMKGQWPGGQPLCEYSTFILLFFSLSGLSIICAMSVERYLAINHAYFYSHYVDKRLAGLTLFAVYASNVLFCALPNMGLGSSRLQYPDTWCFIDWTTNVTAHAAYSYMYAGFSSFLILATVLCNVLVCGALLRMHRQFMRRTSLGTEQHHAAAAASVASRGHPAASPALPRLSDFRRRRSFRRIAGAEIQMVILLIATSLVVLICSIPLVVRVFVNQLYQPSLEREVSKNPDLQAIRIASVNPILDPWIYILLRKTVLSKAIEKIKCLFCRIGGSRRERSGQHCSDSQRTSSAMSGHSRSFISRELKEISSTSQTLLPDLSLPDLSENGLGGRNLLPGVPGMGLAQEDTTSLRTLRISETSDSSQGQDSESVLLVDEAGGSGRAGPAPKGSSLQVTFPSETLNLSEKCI

panel of 68 receptors [5] = target: panel of 68 receptors (Homo sapiens, UniProt P25105); details: Platelet Activating Factor (PAF), hum, 10 μM
panel of 68 receptors [6] = target: panel of 68 receptors (Rattus norvegicus, UniProt P15207); details: Androgen (Testosterone) AR, rat, 10 μM
panel of 68 receptors (Rattus norvegicus, UniProt P15207), sequence (P15207 whole entry S389L): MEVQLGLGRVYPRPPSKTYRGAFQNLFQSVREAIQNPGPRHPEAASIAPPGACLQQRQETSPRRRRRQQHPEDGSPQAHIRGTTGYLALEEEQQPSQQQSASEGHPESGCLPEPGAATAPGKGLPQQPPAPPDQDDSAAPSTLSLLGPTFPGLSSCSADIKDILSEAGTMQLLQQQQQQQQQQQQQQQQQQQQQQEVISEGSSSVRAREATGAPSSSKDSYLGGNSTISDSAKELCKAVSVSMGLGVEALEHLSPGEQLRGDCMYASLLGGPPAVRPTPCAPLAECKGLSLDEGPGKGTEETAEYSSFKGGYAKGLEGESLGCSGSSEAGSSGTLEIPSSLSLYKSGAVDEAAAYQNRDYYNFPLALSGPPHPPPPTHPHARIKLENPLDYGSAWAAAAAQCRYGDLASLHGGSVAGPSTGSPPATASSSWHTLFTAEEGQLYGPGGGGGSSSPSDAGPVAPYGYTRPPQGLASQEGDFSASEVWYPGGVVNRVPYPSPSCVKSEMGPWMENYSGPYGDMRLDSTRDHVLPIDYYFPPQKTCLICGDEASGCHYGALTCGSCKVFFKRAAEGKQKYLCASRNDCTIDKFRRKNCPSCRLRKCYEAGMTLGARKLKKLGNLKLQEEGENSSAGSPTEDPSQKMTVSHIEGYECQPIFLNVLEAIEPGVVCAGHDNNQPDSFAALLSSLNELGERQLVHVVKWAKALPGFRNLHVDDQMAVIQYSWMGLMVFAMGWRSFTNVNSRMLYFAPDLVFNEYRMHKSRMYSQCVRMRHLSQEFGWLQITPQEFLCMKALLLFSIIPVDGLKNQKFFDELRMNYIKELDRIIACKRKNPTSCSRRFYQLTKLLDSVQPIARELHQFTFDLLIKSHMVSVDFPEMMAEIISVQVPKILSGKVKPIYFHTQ

panel of 68 receptors [7] = target: panel of 68 receptors (Homo sapiens, UniProt P21728); details: Dopamine D1, hum, 10 μM
panel of 68 receptors [8] = target: panel of 68 receptors (Homo sapiens, UniProt P31645); details: Transporter, Serotonin (5-Hydroxytryptamine) (SERT), hum, 10 μM
panel of 68 receptors [9] = target: panel of 68 receptors (Homo sapiens, UniProt P35462); details: Dopamine D3, hum, 10 μM
panel of 68 receptors [10] = target: panel of 68 receptors (Homo sapiens, UniProt P20309); details: Muscarinic M3, hum, 10 μM
panel of 68 receptors [11] = target: panel of 68 receptors (Homo sapiens, UniProt P08588); details: Adrenergic β1, hum, 10 μM
panel of 68 receptors [12] = target: panel of 68 receptors (Homo sapiens, UniProt P41595); details: Serotonin (5-Hydroxytryptamine) 5-HT2B, hum, 10 μM
panel of 68 receptors (Homo sapiens, UniProt P41595), sequence (P41595 whole entry): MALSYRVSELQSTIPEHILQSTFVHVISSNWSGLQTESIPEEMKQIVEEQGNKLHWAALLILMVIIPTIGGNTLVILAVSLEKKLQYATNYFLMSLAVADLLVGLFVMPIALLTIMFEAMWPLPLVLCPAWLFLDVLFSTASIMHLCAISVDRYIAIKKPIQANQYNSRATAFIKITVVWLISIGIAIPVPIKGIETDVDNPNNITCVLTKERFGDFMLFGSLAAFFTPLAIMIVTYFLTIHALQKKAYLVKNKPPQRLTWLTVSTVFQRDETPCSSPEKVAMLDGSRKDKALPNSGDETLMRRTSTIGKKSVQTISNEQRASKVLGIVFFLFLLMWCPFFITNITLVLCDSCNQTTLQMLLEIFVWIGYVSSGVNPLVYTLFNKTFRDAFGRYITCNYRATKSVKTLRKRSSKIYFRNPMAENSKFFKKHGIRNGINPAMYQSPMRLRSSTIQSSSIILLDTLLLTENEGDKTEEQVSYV

panel of 68 receptors [13] = target: panel of 68 receptors (Homo sapiens, UniProt P25021); details: Histamine H2, hum, 10 μM
panel of 68 receptors (Homo sapiens, UniProt P25021), sequence (P25021 whole entry): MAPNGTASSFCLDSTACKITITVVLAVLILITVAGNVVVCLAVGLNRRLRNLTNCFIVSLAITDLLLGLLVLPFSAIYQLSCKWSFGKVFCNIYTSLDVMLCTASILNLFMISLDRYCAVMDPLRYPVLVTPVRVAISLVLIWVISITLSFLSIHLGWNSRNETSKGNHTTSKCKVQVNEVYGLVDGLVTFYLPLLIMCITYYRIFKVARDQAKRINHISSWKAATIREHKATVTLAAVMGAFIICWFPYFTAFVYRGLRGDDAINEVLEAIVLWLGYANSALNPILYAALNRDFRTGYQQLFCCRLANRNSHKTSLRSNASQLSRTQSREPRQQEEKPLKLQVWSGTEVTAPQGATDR

panel of 68 receptors [14] = target: panel of 68 receptors (Homo sapiens, UniProt P21554); details: Cannabinoid CB1, hum, 10 μM
panel of 68 receptors (Homo sapiens, UniProt P21554), sequence (P21554 whole entry): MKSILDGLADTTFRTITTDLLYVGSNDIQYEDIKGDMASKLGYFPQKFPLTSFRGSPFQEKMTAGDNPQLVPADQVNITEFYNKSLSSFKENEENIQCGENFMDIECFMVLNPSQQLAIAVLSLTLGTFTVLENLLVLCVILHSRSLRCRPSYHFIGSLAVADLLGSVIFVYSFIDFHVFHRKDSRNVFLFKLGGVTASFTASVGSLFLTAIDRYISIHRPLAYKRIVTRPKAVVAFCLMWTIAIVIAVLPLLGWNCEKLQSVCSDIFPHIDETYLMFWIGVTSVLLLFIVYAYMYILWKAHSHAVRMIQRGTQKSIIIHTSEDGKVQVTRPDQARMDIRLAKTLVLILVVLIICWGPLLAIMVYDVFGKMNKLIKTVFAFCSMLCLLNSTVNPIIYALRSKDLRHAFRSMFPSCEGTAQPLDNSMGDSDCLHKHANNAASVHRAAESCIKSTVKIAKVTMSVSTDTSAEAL

panel of 68 receptors [15] = target: panel of 68 receptors (Homo sapiens, UniProt P0DMS8); details: Adenosine A3, hum, 10 μM
panel of 68 receptors (Homo sapiens, UniProt P0DMS8), sequence (P0DMS8 whole entry): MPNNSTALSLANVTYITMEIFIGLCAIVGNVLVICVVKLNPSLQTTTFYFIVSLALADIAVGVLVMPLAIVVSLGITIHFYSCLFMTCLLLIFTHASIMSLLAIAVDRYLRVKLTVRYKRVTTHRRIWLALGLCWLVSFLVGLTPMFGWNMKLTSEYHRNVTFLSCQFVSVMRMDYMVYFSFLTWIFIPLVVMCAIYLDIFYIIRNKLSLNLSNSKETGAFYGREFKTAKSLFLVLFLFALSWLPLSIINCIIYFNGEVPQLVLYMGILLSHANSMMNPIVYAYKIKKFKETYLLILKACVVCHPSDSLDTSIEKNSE

panel of 68 receptors [16] = target: panel of 68 receptors (Homo sapiens, UniProt Q01959); details: Transporter, Dopamine (DAT), hum, 10 μM
panel of 68 receptors (Homo sapiens, UniProt Q01959), sequence (Q01959 whole entry): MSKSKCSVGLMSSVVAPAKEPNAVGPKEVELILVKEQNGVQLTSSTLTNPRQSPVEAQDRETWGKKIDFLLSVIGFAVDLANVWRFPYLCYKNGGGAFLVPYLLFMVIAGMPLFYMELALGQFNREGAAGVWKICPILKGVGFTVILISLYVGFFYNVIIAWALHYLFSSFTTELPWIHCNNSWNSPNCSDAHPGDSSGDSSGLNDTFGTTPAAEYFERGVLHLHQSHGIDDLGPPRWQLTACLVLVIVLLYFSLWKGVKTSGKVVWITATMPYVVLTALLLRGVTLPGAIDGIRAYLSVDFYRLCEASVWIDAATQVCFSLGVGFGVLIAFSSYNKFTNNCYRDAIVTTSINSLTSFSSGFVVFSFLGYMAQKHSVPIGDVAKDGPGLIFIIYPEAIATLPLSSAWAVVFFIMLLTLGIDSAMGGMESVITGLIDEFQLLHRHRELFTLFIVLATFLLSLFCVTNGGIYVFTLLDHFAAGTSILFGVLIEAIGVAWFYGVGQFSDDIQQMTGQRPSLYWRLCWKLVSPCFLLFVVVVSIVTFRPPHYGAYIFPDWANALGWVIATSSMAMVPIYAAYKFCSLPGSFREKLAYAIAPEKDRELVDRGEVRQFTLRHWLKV

panel of 68 receptors [17] = target: panel of 68 receptors (Homo sapiens, UniProt P41143); details: Opiate δ1, (OP1, DOP), hum, 10 μM
panel of 68 receptors (Homo sapiens, UniProt P41143), sequence (P41143 whole entry): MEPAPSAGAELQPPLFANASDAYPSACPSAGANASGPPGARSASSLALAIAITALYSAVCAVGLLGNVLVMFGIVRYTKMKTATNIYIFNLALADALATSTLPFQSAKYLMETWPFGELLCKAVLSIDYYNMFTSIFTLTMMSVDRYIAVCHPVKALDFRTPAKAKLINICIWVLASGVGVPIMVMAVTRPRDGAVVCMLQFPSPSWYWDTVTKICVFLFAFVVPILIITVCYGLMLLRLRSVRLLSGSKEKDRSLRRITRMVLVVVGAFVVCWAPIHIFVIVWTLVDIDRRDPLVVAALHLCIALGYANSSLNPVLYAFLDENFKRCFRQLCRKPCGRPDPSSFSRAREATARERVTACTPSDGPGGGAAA

panel of 68 receptors [18] = target: panel of 68 receptors (Homo sapiens, UniProt P24530); details: Endothelin ETB, hum, 10 μM

CCOc1ccc(-c2cc(NC(=O)c3c(F)cccc3F)c(C(=O)O)s2)cc1 [ML317, 3-(2,6-difluorobenzamido)-5-(4-ethoxyphenyl)thiophene-2-carboxylic acid]
CC50 (in vitro): 26 µM | IC50 (E. coli K1 strain UTI89; Escherichia coli, commercial sample, SID 103147605, read-out: T7 phage assay IC50): < 0.39 µM | IC50 (E. coli K1 strain UTI89; Escherichia coli, first round of synthetic analogues, n = 2, read-out: T7 phage IC50): < 0.625 µM | IC50 (E. coli K1 strain UTI89; Escherichia coli, purchased analogue series, n = 2, read-out: T7 phage IC50): < 0.39 µM | IC50 (E. coli K1 strain UTI89; Escherichia coli, synthesized sample, SID 126497311, read-out: T7 phage assay IC50): < 0.625 µM | IC50 (E. coli K1 strain UTI89; listed as CID 23602075, read-out: T7 phage IC50): < 0.39 µM

CCOc1ccc(-c2cc(NC(=O)c3c(F)cccc3F)c(C(=O)O)s2)cc1 [KUC107784N-02]
% Inh. (panel of 68 receptors [1]): 14% | % Inh. (panel of 68 receptors [2]): 1% | % Inh. (panel of 68 receptors [3]): 6% | % Inh. (panel of 68 receptors [4]): −4% | % Inh. (panel of 68 receptors [5]): 4% | % Inh. (panel of 68 receptors [6]): −5% | % Inh. (panel of 68 receptors [7]): 5% | % Inh. (panel of 68 receptors [8]): 8% | % Inh. (panel of 68 receptors [9]): 4% | % Inh. (panel of 68 receptors [10]): 14% | % Inh. (panel of 68 receptors [11]): 2% | % Inh. (panel of 68 receptors [12]): 11% | % Inh. (panel of 68 receptors [13]): 2% | % Inh. (panel of 68 receptors [14]): 13% | % Inh. (panel of 68 receptors [15]): 29% | % Inh. (panel of 68 receptors [16]): 8% | % Inh. (panel of 68 receptors [17]): 0% | % Inh. (panel of 68 receptors [18]): 3%
